US20230219978A1, “COMPOUND HAVING MACROCYCLIC STRUCTURE AND USE THEREOF” (SCINNOHUB PHARMACEUTICAL CO., LTD, priority 2020, published 2023)

Experiments:
Type in all cases: biochemical
TRKa = target: T1, TRKa (Homo sapiens, UniProt P04629); test: In vitro kinase activity assay (mobility shift assay), TRKa; settings: ATP 47.8 μM, reaction time 30 min
T1 construct: purchased Carna 08-186
Description: (§1) The IC50 (half inhibitory concentration) values of the compounds were used as an indicator to evaluate the inhibitory effect of the compound on RET wild-type, RET mutant, TRKa, SRC, BTK and/or mutated BTK kinase.
(§2) Using the method of Mobility shift assay, the compounds were tested for inhibitory activity against the following kinases: RET wild type, RET mutant, TRKa, SRC, BTK and/or mutated BTK. The initial concentration of the test compound was 1000 nM, 3-fold dilution, 10 concentrations, detected in a well for each concentration.
(§3) 20 mM hydroxyethylpiperazineethanesulfonic acid (Hepes) (pH 7.5) buffer, 10 mM MgCl2, 1 mM ethylene glycol bis(aminoethyl ether)tetraacetic acid (EGTA), 0.02% polyoxyethylene lauryl ether (Brij35), 0.02 mg/ml […] (BSA), 0.1 mM Na3VO4, 2 mM dithiothreitol (DTT), 1% DMSO.
(§4) The test compounds were dissolved in 100% dimethyl sulfoxide (DMSO) system, and prepared as 10 mM for use, and stored in a nitrogen cabinet away from light.
(§5) • (1) Preparing 1× kinase reaction buffer. • (2) Preparation of compound concentration gradient: the initial concentration of the compounds was 1000 nM, which was diluted as 100-fold final concentration of solution in 100% dimethyl sulfoxide (DMSO) in a 384-well plate. The compound was accurately 3-fold diluted with the kinase buffer solution, 10 concentrations in total, and the final concentration was 0.0508 nM. The 100-fold final concentration of solution in 100% dimethyl sulfoxide (DMSO) was obtained by dilution in 384 source plate. The liquid separator Echo 550 was used to transfer 250 nl of 100-fold final concentration of compound to the target 384 well plate. 250 nl of DMSO was added to the positive and negative control wells. • (3) 2.5-fold final concentration of kinase solution was prepared by the 1× kinase buffer. • (4) 10 4, of 2.5-fold final concentration of kinase solution was added to the compound well and the positive control well, respectively; 10 4, of 1× kinase buffer was added to the negative control well. • (5) After centrifuging at 1000 rpm for 30 second, the reaction plate was shaken and mixed, followed by incubation at room temperature for 10 min. • (6) a mixed solution of 25/15-fold final concentration of adenosine triphosphate (ATP) and kinase substrate was prepared by 1× kinase buffer. • (7) The mixed solution (15 μL) of 25/15-fold final concentration of adenosine triphosphate (ATP) and substrate was added to initiate the reaction. • (8) 384-well plate was centrifuged at 1000 rpm for 30 second, shaken and mixed well, and then incubated at room temperature for 30-240 min. • (9) After stopping the kinase reaction, the plate was centrifugated at 1000 rpm for 30 second, shaken and mixed well. • (10)The conversion rate was read with Caliper EZ Reader.
(§6) wherein Conversion%_sample is the conversion rate reading of the sample; Conversion%_min: the mean value of negative control wells, representing the conversion rate reading of wells without enzymes; Conversion%_max: the mean value of positive control wells, representing the conversion rate reading of wells without compound inhibition.
(§7) The log value of concentration was taken as the X axis, and the percentage inhibition rate was taken as the Y axis. Graphpad 6.0 analysis software was used to fit the dose-response curve, so as to obtain the IC50 value of each compound on the enzyme activity

RET wt = target: T2, RET wt (Homo sapiens, UniProt P07949); test: In vitro kinase activity assay (mobility shift assay), RET wild type; settings: ATP 16 μM, reaction time 60 min
T2 construct: purchased Carna 08-159
Description: as §1, §2, §3, §4, §5, §6, §7

BTK = target: T3, BTK (Homo sapiens, UniProt Q06187); test: In vitro kinase activity assay (mobility shift assay), BTK; settings: ATP 71 μM, reaction time 30 min
T3 construct: purchased Carna 08-180
Description: as §1, §2, §3, §4, §5, §6, §7

RET G810R = target: T4, RET G810R (Homo sapiens, UniProt P07949, G810R); test: In vitro kinase activity assay (mobility shift assay), RET G810R; settings: ATP 201 μM, reaction time 4 h
T4 construct: purchased Proqinase 1724-0000-1
Description: as §1, §2, §3, §4, §5, §6, §7

RET V804M = target: T5, RET V804M (Homo sapiens, UniProt P07949, V804M); test: In vitro kinase activity assay (mobility shift assay), RET V804M; settings: ATP 5.4 μM, reaction time 60 min
T5 construct: purchased signalchem R02-12GG
Description: as §1, §2, §3, §4, §5, §6, §7

T5 sequence (P07949 29-1114 V804M): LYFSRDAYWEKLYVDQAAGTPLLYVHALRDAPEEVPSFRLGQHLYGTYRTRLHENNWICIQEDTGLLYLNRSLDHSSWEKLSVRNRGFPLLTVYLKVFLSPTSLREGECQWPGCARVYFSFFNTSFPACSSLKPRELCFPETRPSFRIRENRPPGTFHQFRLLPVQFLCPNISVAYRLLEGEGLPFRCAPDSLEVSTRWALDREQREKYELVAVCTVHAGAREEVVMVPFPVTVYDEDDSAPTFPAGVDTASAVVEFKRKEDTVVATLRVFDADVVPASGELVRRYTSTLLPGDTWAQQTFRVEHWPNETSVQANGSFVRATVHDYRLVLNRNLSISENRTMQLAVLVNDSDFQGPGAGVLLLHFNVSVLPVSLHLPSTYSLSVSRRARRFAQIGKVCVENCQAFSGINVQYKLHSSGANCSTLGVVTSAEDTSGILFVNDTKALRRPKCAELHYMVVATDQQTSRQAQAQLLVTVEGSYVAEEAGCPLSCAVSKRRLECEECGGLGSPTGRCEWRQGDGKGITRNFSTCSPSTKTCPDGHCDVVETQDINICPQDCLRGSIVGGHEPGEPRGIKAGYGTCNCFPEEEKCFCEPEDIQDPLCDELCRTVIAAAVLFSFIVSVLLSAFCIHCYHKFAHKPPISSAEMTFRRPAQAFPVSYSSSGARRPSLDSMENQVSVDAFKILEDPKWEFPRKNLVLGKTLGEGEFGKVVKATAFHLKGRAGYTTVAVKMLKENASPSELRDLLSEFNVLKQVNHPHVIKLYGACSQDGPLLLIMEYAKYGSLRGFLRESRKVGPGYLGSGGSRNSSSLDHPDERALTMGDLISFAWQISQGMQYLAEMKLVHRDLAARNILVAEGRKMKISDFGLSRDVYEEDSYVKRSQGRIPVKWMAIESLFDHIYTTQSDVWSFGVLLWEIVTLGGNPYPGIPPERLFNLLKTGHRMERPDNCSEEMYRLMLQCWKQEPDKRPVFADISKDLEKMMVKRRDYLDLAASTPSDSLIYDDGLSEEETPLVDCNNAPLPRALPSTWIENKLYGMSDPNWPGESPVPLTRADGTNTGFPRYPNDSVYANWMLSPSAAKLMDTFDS
T1 sequence (P04629 33-796): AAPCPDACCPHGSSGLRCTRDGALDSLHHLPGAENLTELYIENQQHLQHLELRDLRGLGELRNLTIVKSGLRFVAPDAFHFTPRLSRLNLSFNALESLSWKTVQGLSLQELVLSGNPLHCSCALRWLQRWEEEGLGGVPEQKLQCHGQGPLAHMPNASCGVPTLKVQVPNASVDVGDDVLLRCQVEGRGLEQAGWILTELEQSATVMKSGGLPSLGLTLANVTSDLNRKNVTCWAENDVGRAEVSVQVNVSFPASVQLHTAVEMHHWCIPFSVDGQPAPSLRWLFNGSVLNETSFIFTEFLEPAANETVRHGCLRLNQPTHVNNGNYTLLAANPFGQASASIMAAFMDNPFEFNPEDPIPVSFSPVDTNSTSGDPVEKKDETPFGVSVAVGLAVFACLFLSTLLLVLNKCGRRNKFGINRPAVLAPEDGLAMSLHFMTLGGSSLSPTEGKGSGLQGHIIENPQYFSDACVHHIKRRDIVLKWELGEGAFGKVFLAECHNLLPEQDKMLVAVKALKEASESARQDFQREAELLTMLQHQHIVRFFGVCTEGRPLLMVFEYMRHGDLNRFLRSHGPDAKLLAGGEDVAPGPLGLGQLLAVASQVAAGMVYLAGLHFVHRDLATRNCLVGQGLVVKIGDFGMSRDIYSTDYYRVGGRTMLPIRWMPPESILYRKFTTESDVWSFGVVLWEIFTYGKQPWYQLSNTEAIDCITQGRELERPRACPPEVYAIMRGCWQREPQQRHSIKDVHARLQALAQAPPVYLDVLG
T4 sequence (P07949 29-1114 G810R): as the sequence (P07949 29-1114 V804M) above, with M776V, G782R counted along it
T2 sequence (P07949 29-1114): as the sequence (P07949 29-1114 V804M) above, with M776V counted along it
T3 sequence (Q06187 whole entry): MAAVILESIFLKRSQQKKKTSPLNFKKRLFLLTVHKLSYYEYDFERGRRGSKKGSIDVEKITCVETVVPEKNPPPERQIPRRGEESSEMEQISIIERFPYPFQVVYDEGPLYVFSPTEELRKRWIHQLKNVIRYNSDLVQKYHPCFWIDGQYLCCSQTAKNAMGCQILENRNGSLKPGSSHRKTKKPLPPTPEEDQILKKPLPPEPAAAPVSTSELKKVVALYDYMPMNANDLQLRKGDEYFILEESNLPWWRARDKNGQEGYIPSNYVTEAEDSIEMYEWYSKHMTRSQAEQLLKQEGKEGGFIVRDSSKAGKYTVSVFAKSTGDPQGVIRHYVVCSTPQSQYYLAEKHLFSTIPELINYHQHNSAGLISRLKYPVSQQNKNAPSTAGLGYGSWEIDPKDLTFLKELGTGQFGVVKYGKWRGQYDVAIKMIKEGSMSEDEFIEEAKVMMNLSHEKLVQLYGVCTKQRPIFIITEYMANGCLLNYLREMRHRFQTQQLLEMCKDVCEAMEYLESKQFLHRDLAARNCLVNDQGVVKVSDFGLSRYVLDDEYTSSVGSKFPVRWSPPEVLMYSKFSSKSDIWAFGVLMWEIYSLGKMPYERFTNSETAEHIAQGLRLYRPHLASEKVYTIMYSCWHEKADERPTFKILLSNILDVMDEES

IC50 (TRKa) [nM]	IC50 (RET wt) [nM]	IC50 (BTK) [nM]	IC50 (RET G810R) [nM]	IC50 (RET V804M) [nM]	SMILES
46	5280	–	–	–	C[C@H]1CNC(=O)c2cnn3cc(O)c(nc23)NCc2cc(F)cnc2O1 [Compound 2, (S, 1^3E, 1^4E)-4^5-fluoro-6-methyl-1^6-hydroxy-5-oxa-2,8-diaza-1(5,3)-pyrazolo[1,5-a]pyrimidina-4(3,2)-pyridinacyclononaphan-9-one]
> 10000	237	–	–	–	COc1cc(-c2cn3ncc4c3nc2NCc2cc(F)cnc2O[C@@H](C)CNC4=O)ccn1 [Compound 5, (S, 1^3E, 1^4E)-4^5-fluoro-1^6-(2-methoxypyridin-4-yl)-6-methyl-5-oxa-2,8-diaza-1(5,3)-pyrazolo[1,5-a]pyrimidin-4(3, 2)-pyridinacyclononaphan-9-one]
1340	5.1	–	–	–	C[C@H]1CNC(=O)c2cnn3cc(-c4ccccc4F)c(nc23)NCc2cc(F)cnc2O1 [Compound 6, (S, 1^3E, 1^4E)-1^6-(2-fluorophenyl)-4^5-fluoro-6-methyl-5-oxa-2,8-diaza-1(5,3)-pyrazolo[1,5-a]pyrimidina-4(3,2)-pyridinacyclononaphan-9-one]
–	> 1000	> 1000	> 1000	–	C[C@H]1CNC(=O)c2cnn3cc(-c4ccc5[nH]c(=O)[nH]c5c4)c(nc23)NCc2cc(F)cnc2O1 [Compound 38, (S, 1^3E, 1^4E)-4^5-fluoro-6-methyl-1^6-(2-oxo-2,3-dihydro-1H-benzo[d]imidazol-5-yl)-5-oxo-2,8-diaza-1(5,3)-pyrazolo[1,5-a]pyrimidin-4(3,2)-pyridinacyclononaphan-9-one]
–	13	2070	> 10000	> 10000	C[C@H]1CNC(=O)c2cnn3cc(C4=CCCC4)c(nc23)NCc2cc(F)cnc2O1 [Compound 41, (S, 1^3E, 1^4E)-1^6-(cyclopent-1-en-1-yl)-4^5-fluoro-6-methyl-5-oxa-2,8-diaza-1(5,3)-pyrazolo[1,5-a]pyrimidin-4(3,2)-pyridinacyclononaphan-9-one]
–	68	> 10000	> 10000	> 10000	COC(=O)NC1CC=C(c2cn3ncc4c3nc2NCc2cc(F)cnc2O[C@@H](C)CNC4=O)CC1 (stereo partly drawn) [Compound 43, methyl (4((S, 1^3E, 1^4E)-4^5-fluoro-6-methyl-9-oxo-5-oxa-2,8-diaza-1(5,3)-pyrazolo[1,5-a]pyrimidin-4(3,2)-pyridinacyclononaphan-1^6-yl)cyclohex-3-en-1-yl)carbamate]
–	3.5	3.6	361	–	C[C@H]1CNC(=O)c2cnn3c(N)c(-c4ccc(N)cc4)c(nc23)NCc2cc(F)cnc2O1 [Example 60, (S, 1^3E, 1^4E)-1^7-amino-1^6-(4-aminophenyl)-4^5-fluoro-6-methyl-5-oxa-2,8-diaza-1(5,3)-pyrazolino[1,5-a] pyrimidin-4(3,2)-pyridinacyclononaphan-9-one]
–	6.2	–	155	15	C[C@H]1CNC(=O)c2cnn3c(N)c(-c4ccc(NC(=O)OCC(F)(F)F)cc4)c(nc23)NCc2cc(F)cnc2O1 [Example 68, trifluoroethyl (4-((S, 1^3E, 1^4E)-1^7-amino-4^5-fluoro-6-methyl-9-oxo-5-oxa-2,8-diaza-1(5,3)-pyrazolino [1,5-a]pyrimidin-4(3,2)-pyridinacyclononaphan-1^6-yl)-phenyl)carbamate]
–	0.87	–	16	2.8	CCOC(=O)Nc1ccc(-c2c3nc4c(cnn4c2N)C(=O)NC[C@H](C)Oc2ncc(F)cc2CN3)cc1F [Example 69, ethyl (4-((S, 1^3E, 1^4E)-1^7-amino-4^5-fluoro-6-methyl-9-oxo-5-oxa-2,8-diaza-1(5,3)-pyrazolo[1,5-a]pyrimidin-4(3,2)-pyridinacyclononaphan-1^6-yl)-2-fluorophenyl)carbamate]
–	15	–	> 1000	551	CCOC(=O)Nc1c(F)cc(-c2c3nc4c(cnn4c2N)C(=O)NC[C@H](C)Oc2ncc(F)cc2CN3)cc1F [Example 70, (S, 1^3E, 1^4E)-1^7-amino-4^5-fluoro-6-methyl-1^6-(6^2′^6-difluoro-6^1-(ethoxycarbonyl)amino-4-yl)phenyl-5-oxa-2,8-diaza-1(5,3)-pyrazolo[1,5-a]pyrimidinyl-4(3,2)-pyridinacyclononaphan-9-one]
–	1.2	–	23	1.6	CCOC(=O)Nc1ccc(-c2c3nc4c(cnn4c2N)C(=O)NC[C@H](C)Oc2ncc(F)cc2CN3)c(F)c1 [Example 71, ethyl (4-((S, 1^3E, 1^4E)-1^7-amino-4^5-fluoro-6-methyl-9-oxo-5-oxo-2,8-diaza-1(5,3)-pyrazolo[1,5-a]pyrimidin-4(3,2)-pyridinacyclononaphan-1^6-yl)-3-fluorophenyl)carbamate]
–	0.56	–	14	1.4	CCOC(=O)Nc1ccc(-c2c3nc4c(cnn4c2N)C(=O)NCCOc2ncc(F)cc2CN3)cc1 [Example 72, ethyl (4-((1^3E, 1^4E)-1^7-amino-4^5-fluoro-9-oxo-5-oxo-2,8-diaza-1(5,3)-pyrazolo[1,5-a]pyrimidin-4(3,2)-pyridinacyclononaphan-1^6-yl)phenyl)carbamate]
–	4.4	–	238	137	Nc1c(-c2ccccc2)c2nc3c(cnn13)C(=O)NCCCc1ncc(F)cc1CN2 [Example 73, (1^3E, 1^4E)-1^7-(amino)-4^5-fluoro-1^6-phenyl-2,8-aza-1(5,3)-pyrazolo[1,5-a]pyrimidinyl-4(3,2)-pyridinacyclononaphan-9-one]
–	0.6	–	15	0.99	CCNC(=O)Nc1ccc(-c2c3nc4c(cnn4c2N)C(=O)NC[C@H](C)Oc2ncc(F)cc2CN3)cc1 [Example 80, 1-(4-((S, 1^3E, 1^4E)-1^7-amino-4^5-fluoro-6-methyl-9-oxo-5-oxa-2,8-diaza-1(5,3)-pyrazolo[1,5-a]pyrimidin-4(3,2)-pyridinacyclononaphan-1^6-yl)-phenyl)-3-ethylurea]
–	89	–	> 1000	384	CCN(C)C(=O)Nc1ccc(-c2c3nc4c(cnn4c2N)C(=O)NC[C@H](C)Oc2ncc(F)cc2CN3)cc1 [Example 81, 3-(4-((S, 1^3E,VE)-1^7-amino-4^5-fluoro-6-methyl-9-oxo-5-oxa-2,8-diaza-1(5,3)-pyrazolo[1,5-a]pyrimidin-4(3,2)-pyridinacyclononaphan-1^6-yl)-phenyl)-1-ethyl-1-methylure a]
–	1.1	–	138	9.5	C[C@H]1CNC(=O)c2cnn3c(N)c(-c4cnn(C)c4)c(nc23)NCc2cc(F)cnc2O1 [Example 82, (S, 1^3E, 1^4E)-1^7-amino-4^5-fluoro-6-methyl-1^6-(1-methyl-1H-pyrazol-4-yl)-5-oxa-2,8-diaza-1(5,3)-pyrazolo[1,5-a]pyrimidin-4(3,2)-pyridinacyclononaphan-9-one]
–	49	–	> 1000	281	CCNC(=O)Cc1ccc(-c2c3nc4c(cnn4c2N)C(=O)NC[C@H](C)Oc2ncc(F)cc2CN3)cc1 [Example 83, 2-(4-((S, 1^3E, 1^4E)-1^7-4^5-fluoro-6-methyl-9-oxo-5-oxa-2,8-diaza-1(5,3)-pyrazolo[1,5-a]pyrimidin-4(3,2)-pyridinacyclononaphan-1^6-yl)phenyl)-N-ethylacetamide]
